Values after ≈ are worked out from the molar mass of the structure shown. Values joined by “and” are separate entries in the source; they are usually repeats but may differ in a detail not shown here. Identical values can stand only once. Where only a bound is given, the exact number is not on record here.

The MIC is the lowest concentration that inhibits growth of the organism. Lower therefore signals inhibition by little substance.

Common to all, as to test: ≥ marks a high value that may be exact or a test limit, other limits are often not marked, values filed in µg/mL are converted to µM
For assay [1], the system named is Escherichia coli ATCC 25922.
The test system of assay [2] is Staphylococcus aureus ATCC 25923.
Assay [3] relates to Pseudomonas aeruginosa ATCC 27853.

As for `CC[C@H](C)[C@H](NC(=O)CNC(=O)[C@H](CCSC)NC(=O)[C@H](CCCCN)NC(=O)[C@H](C)NC(=O)[C@H](CC(C)C)NC(=O)[C@H](CCCCN)NC(=O)[C@H](CCC(=O)O)NC(=O)[C@H](CC(C)C)NC(=O)CNC(=O)[C@H](CCCN=C(N)N)NC(=O)[C@H](CC(C)C)NC(=O)[C@@H](NC(=O)[C@H](CO)NC(=O)[C@H](CC(C)C)NC(=O)[C@H](C)N)[C@@H](C)CC)C(=O)N[C@@H](C)C(=O)N[C@@H](CC(C)C)C(=O)N[C@H](C(=O)N[C@@H](CC(N)=O)C(=O)N[C@H]1CSSC[C@@H](C(=O)O)NC(=O)[C@H](CCCCN)NC(=O)[C@H](CCCCN)NC(=O)[C@H]([C@@H](C)O)NC(=O)[C@H](C)NC(=O)[C@H](CCCCN)NC1=O)[C@@H](C)O` [ALSILRGLEKLAKMGIALTNCKATKKC], the minimum inhibitory concentration (MIC) in assay [1] is 28 µM (≈ 80.5 µg/mL).

With `CC[C@H](C)[C@H](NC(=O)[C@@H](NC(=O)[C@@H]1CCCN1C(=O)CNC(=O)[C@@H](NC(=O)[C@@H](N)Cc1ccccc1)[C@@H](C)CC)[C@@H](C)CC)C(=O)N[C@@H](CO)C(=O)N[C@@H](C)C(=O)N[C@@H](CC(C)C)C(=O)N[C@@H](C)C(=O)N[C@@H](CO)C(=O)N[C@@H](CC(C)C)C(=O)N[C@@H](Cc1ccccc1)C(=O)NCC(N)=O` [FIGPIISALASLFG], the MIC in assay [1] and in assay [2] was more than 60 µM each time. For the molecule `CC(C)[C@H](NC(=O)[C@@H]1CCCN1C(=O)[C@@H](N)Cc1ccccc1)C(=O)N[C@H](C(=O)N[C@@H](Cc1c[nH]c2ccccc12)C(=O)N[C@@H](CCCCN)C(=O)N[C@@H](Cc1c[nH]c2ccccc12)C(=O)N[C@@H](Cc1c[nH]c2ccccc12)C(=O)N[C@@H](CCCCN)C(=O)N[C@@H](Cc1c[nH]c2ccccc12)C(=O)N[C@@H](Cc1c[nH]c2ccccc12)C(=O)N[C@@H](CCCCN)C(=O)NCC(N)=O)[C@@H](C)O` [FPVTWKWWKWWKG], the MIC was 5.3 µM and 8 µM in assay [1]; 20 µM (≈ 36.7 µg/mL) in assay [2]. For `CC[C@H](C)[C@H](NC(=O)[C@@H](NC(=O)[C@@H](NC(=O)CNC(=O)[C@H](C)NC(=O)[C@@H](NC(=O)[C@H](CC(N)=O)NC(=O)[C@@H](NC(=O)[C@H](C)NC(=O)[C@H](CC(C)C)NC(=O)[C@H](CC(N)=O)NC(=O)[C@H](CCCCN)NC(=O)[C@@H](NC(=O)[C@@H](NC(=O)[C@H](CO)NC(=O)[C@H](Cc1ccccc1)NC(=O)[C@H](Cc1ccccc1)NC(=O)CN)[C@@H](C)O)C(C)C)[C@@H](C)O)C(C)C)[C@@H](C)O)C(C)C)C(=O)N[C@@H](CC(=O)O)C(=O)N[C@H](C(=O)N[C@@H](CC(C)C)C(=O)N[C@@H](CCCCN)C(=O)N[C@H]1CSSC[C@@H](C(=O)N[C@@H](CCCN=C(N)N)C(=O)N[C@@H](CO)C(=O)O)NC(=O)CNC(=O)CNC(=O)[C@H]([C@@H](C)O)NC(=O)[C@H](C(C)C)NC(=O)[C@H](CCCCN)NC1=O)[C@@H](C)O` [GFFSTVKNLATNVAGTVIDTLKCKVTGGCRS], the MIC in assay [1] is 78 µM (≈ 249 µg/mL). With `CC[C@H](C)[C@H](NC(=O)CNC(=O)[C@H](CC(N)=O)NC(=O)[C@@H](NC(=O)[C@@H](NC(=O)CNC(=O)[C@@H](NC(=O)[C@H](CCCCN)NC(=O)[C@@H](NC(=O)CNC(=O)[C@H](CCCCN)NC(=O)CNC(=O)[C@@H](NC(=O)[C@@H](NC(=O)[C@H](CCCCN)NC(=O)[C@@H]1CCCN1C(=O)[C@H](Cc1ccccc1)NC(=O)[C@@H](NC(=O)CN)[C@@H](C)CC)[C@@H](C)CC)[C@@H](C)CC)[C@@H](C)CC)[C@@H](C)O)[C@@H](C)CC)C(C)C)C(=O)N[C@@H](CCCCN)C(=O)N[C@@H](CO)C(=O)N[C@@H](CC(C)C)C(=O)N[C@H](C(=O)N[C@@H](CCCCN)C(=O)NCC(=O)N[C@H](C(=O)NCC(=O)N[C@@H](CCSC)C(=O)N[C@@H](CCCCN)C(=O)N[C@H](C(=O)N[C@@H](Cc1ccccc1)C(=O)N[C@@H](CCCCN)C(=O)N[C@@H](C)C(=O)NCC(=O)N[C@@H](CC(C)C)C(=O)N[C@@H](CO)C(=O)N[C@@H](CC(N)=O)C(=O)N[C@H](C(=O)NCC(=O)N[C@@H](CC(N)=O)C(=O)N[C@H](C(=O)NCC(=O)N[C@H]1CSSC[C@@H](C(=O)O)NC(=O)[C@H](CCC(=O)O)NC(=O)[C@H](CC(=O)O)NC(=O)[C@H](CCC(=O)O)NC(=O)[C@H](CC(N)=O)NC1=O)[C@@H](C)O)[C@@H](C)CC)C(C)C)C(C)C)C(C)C` [GIFPKIIGKGIKTGIVNGIKSLVKGVGMKVFKAGLSNIGNTGCNEDEC], in assay [1], the minimum inhibitory concentration (MIC) worked out at 1 µM (≈ 4.9 µg/mL).

Turning to `CC[C@H](C)[C@H](NC(=O)CNC(=O)[C@H](CCCCN)NC(=O)[C@@H](NC(=O)[C@H](CC(C)C)NC(=O)[C@H](CO)NC(=O)CNC(=O)[C@H](CC(C)C)NC(=O)CNC(=O)[C@H](C)NC(=O)[C@H](CCCCN)NC(=O)[C@H](Cc1ccccc1)NC(=O)[C@@H](NC(=O)[C@H](CC(=O)O)NC(=O)[C@H](CCCCN)NC(=O)[C@H](CC(C)C)NC(=O)CN)[C@@H](C)CC)C(C)C)C(=O)N[C@@H](C)C(=O)N[C@@H](C)C(=O)N[C@@H](Cc1cnc[nH]1)C(=O)N[C@H](C(=O)N[C@@H](C)C(=O)N[C@@H](CC(N)=O)C(N)=O)C(C)C` [GLKDIFKAGLGSLVKGIAAHVAN], the figures for the MIC in assay [1] and in assay [2] were 25 µM (≈ 57 µg/mL) and 200 µM (≈ 456 µg/mL), respectively. On the same counts, the results for `CC(C)C[C@H](NC(=O)CN)C(=O)N[C@@H](CC(C)C)C(=O)N[C@@H](CC(=O)O)C(=O)N[C@@H](Cc1ccccc1)C(=O)N[C@@H](CC(C)C)C(=O)N[C@@H](CCCCN)C(=O)N[C@@H](C)C(=O)N[C@@H](C)C(=O)NCC(=O)N[C@@H](CCCCN)C(=O)NCC(=O)N[C@@H](CC(C)C)C(=O)N[C@H](C(=O)N[C@@H](CO)C(=O)N[C@@H](CC(N)=O)C(=O)N[C@@H](CC(C)C)C(=O)N[C@@H](CC(C)C)C(=O)N[C@@H](CCC(=O)O)C(=O)N[C@@H](CCCCN)C(N)=O)C(C)C` [GLLDFLKAAGKGLVSNLLEK] are 15 µM (≈ 31.3 µg/mL) and 15 µM (≈ 31.3 µg/mL). The molecule `CC[C@H](C)[C@H](NC(=O)[C@H](CCCN=C(N)N)NC(=O)[C@H](CCCCN)NC(=O)[C@H](CC(C)C)NC(=O)[C@@H](NC(=O)CN)C(C)C)C(=O)N[C@@H](CCCCN)C(=O)N[C@H](C(=O)N[C@@H](CC(C)C)C(=O)N[C@H](C(N)=O)C(C)C)[C@@H](C)O` [GVLKRIKTLV] gave an MIC in assay [1] of more than 200 µM. In the case of `CC(C)C[C@H](NC(=O)[C@H](C)NC(=O)[C@@H](N)CCCCN)C(=O)N[C@@H](Cc1c[nH]c2ccccc12)C(=O)N[C@@H](CCCCN)C(=O)N[C@H](C(=O)N[C@@H](CC(C)C)C(=O)N[C@@H](CC(C)C)C(=O)N[C@@H](CCCCN)C(=O)N[C@@H](CCCCN)C(=O)N[C@H](C(=O)N[C@@H](CC(C)C)C(=O)N[C@@H](CCCCN)C(=O)N[C@@H](C)C(N)=O)C(C)C)[C@@H](C)O` [KALWKTLLKKVLKA], the MIC was 3 µM (≈ 4.92 µg/mL) in assay [1] and 25 µM (≈ 41 µg/mL) in assay [2]. For the molecule `CC[C@H](C)[C@H](NC(=O)[C@H](Cc1c[nH]c2ccccc12)NC(=O)[C@H](CCCN=C(N)N)NC(=O)[C@H](Cc1c[nH]c2ccccc12)NC(=O)[C@H](Cc1c[nH]c2ccccc12)NC(=O)[C@H](CCCN=C(N)N)NC(=O)[C@H](CCCN=C(N)N)NC(=O)[C@H](Cc1c[nH]c2ccccc12)NC(=O)[C@@H](N)CCCN=C(N)N)C(N)=O` [RWRRWWRWI], the MIC in assay [1] is 10.7 µM (≈ 16 µg/mL). On to `CC(C)C[C@H](NC(=O)[C@H](CCCCN)NC(=O)CNC(=O)[C@@H](N)CO)C(=O)N[C@@H](Cc1ccc(O)cc1)C(=O)N[C@@H](Cc1ccc(O)cc1)C(=O)N[C@@H](CCCN=C(N)N)C(=O)N[C@@H](CCCN=C(N)N)C(=O)N[C@@H](CCCCN)C(=O)N[C@@H](CCCCN)C(N)=O` [SGKLYYRRKK], for which the MIC in assay [3] and in assay [2] was more than 100 µM throughout. With `CC(C)C[C@H](NC(=O)[C@H](CC(C)C)NC(=O)[C@H](CC(N)=O)NC(=O)[C@H](CCCCN)NC(=O)[C@H](CC(C)C)NC(=O)[C@H](CC(=O)O)NC(=O)[C@@H](N)C(C)C)C(=O)N[C@@H](CCCCN)C(=O)O` [VDLKNLLK], in assay [3], the minimal inhibitory concentration (MIC) amounted to 32 µM (≈ 30.1 µg/mL).

The values above are taken from DBAASP.
